Measurements published in PubChem BioAssay (NCI).
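In this assay, cells in 96-well plates receive the compound at five concentrations for 48 hours. Endpoints are linearly interpolated between the surrounding concentrations. TGI: total growth inhibition.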 Where a SMILES comes first, the peptide text is derived from it.

Legend:
Assay in all cases: DTP human tumour cell line panel, 48 h
HT29 colon = tested on: HT29 colon
NCI-H460 lung = tested on: NCI-H460 lung
SK-MEL-28 melanoma = tested on: SK-MEL-28 melanoma
EKVX NSCLC = tested on: EKVX NSCLC
HCT-15 colon = tested on: HCT-15 colon
M14 melanoma = tested on: M14 melanoma
SK-MEL-5 melanoma = tested on: SK-MEL-5 melanoma
SF-295 CNS = tested on: SF-295 CNS
LXFL 529 NSCLC = tested on: LXFL 529 NSCLC
DMS 273 small cell lung = tested on: DMS 273 small cell lung
ACHN renal = tested on: ACHN renal
SNB-78 CNS = tested on: SNB-78 CNS
TK-10 renal = tested on: TK-10 renal
DLD-1 colon = tested on: DLD-1 colon
A549 NSCLC = tested on: A549 NSCLC
OVCAR-3 ovarian = tested on: OVCAR-3 ovarian
NCI-H226 lung = tested on: NCI-H226 lung
LOX IMVI melanoma = tested on: LOX IMVI melanoma
UO-31 renal = tested on: UO-31 renal
HCC-2998 colon = tested on: HCC-2998 colon
CAKI-1 renal = tested on: CAKI-1 renal
NCI-H522 lung = tested on: NCI-H522 lung
RPMI-8226 leukemia = tested on: RPMI-8226 leukemia
UACC-257 melanoma = tested on: UACC-257 melanoma
U251 CNS = tested on: U251 CNS
UACC-62 melanoma = tested on: UACC-62 melanoma
HCT-116 colon = tested on: HCT-116 colon
SW-620 colon = tested on: SW-620 colon
OVCAR-8 ovarian = tested on: OVCAR-8 ovarian
RXF-631 renal = tested on: RXF-631 renal
NCI-H23 lung = tested on: NCI-H23 lung
HOP-92 NSCLC = tested on: HOP-92 NSCLC
RXF 393 renal = tested on: RXF 393 renal
K-562 leukemia = tested on: K-562 leukemia
SNB-75 CNS = tested on: SNB-75 CNS
SF-539 CNS = tested on: SF-539 CNS
MOLT-4 leukemia = tested on: MOLT-4 leukemia
KM12 colon = tested on: KM12 colon
A498 renal = tested on: A498 renal
COLO 205 colon = tested on: COLO 205 colon
SK-OV-3 ovarian = tested on: SK-OV-3 ovarian
786-0 renal = tested on: 786-0 renal
HOP-18 NSCLC = tested on: HOP-18 NSCLC
CCRF-CEM leukemia = tested on: CCRF-CEM leukemia
SN12C renal = tested on: SN12C renal
IGROV1 ovarian = tested on: IGROV1 ovarian
HOP-62 NSCLC = tested on: HOP-62 NSCLC
HL-60(TB) leukemia = tested on: HL-60(TB) leukemia
KM20L2 colon = tested on: KM20L2 colon
M19-MEL melanoma = tested on: M19-MEL melanoma
MALME-3M melanoma = tested on: MALME-3M melanoma
SR leukemia = tested on: SR leukemia
DMS 114 small cell lung = tested on: DMS 114 small cell lung
OVCAR-4 ovarian = tested on: OVCAR-4 ovarian
SK-MEL-2 melanoma = tested on: SK-MEL-2 melanoma
SNB-19 CNS = tested on: SNB-19 CNS
SF-268 CNS = tested on: SF-268 CNS
OVCAR-5 ovarian = tested on: OVCAR-5 ovarian

Measured: TGI

CN[C@@H](C)[C@H](N)c1ccccc1
> 100 µM: HT29 colon | NCI-H460 lung | SK-MEL-28 melanoma | EKVX NSCLC | HCT-15 colon | M14 melanoma | SK-MEL-5 melanoma | SF-295 CNS | LXFL 529 NSCLC | DMS 273 small cell lung | ACHN renal | SNB-78 CNS | TK-10 renal | DLD-1 colon | A549 NSCLC | OVCAR-3 ovarian | NCI-H226 lung | LOX IMVI melanoma | UO-31 renal | HCC-2998 colon | CAKI-1 renal | NCI-H522 lung | RPMI-8226 leukemia | UACC-257 melanoma | U251 CNS | UACC-62 melanoma | HCT-116 colon | SW-620 colon | OVCAR-8 ovarian | RXF-631 renal | NCI-H23 lung | HOP-92 NSCLC | RXF 393 renal | K-562 leukemia | SNB-75 CNS | SF-539 CNS | MOLT-4 leukemia | KM12 colon | A498 renal | COLO 205 colon | SK-OV-3 ovarian | 786-0 renal | HOP-18 NSCLC | CCRF-CEM leukemia | SN12C renal | IGROV1 ovarian

CNS(=O)(=O)NN(C)S(=O)(=O)c1ccc2ccccc2c1
> 100 µM: HT29 colon | EKVX NSCLC | HCT-15 colon | HOP-62 NSCLC | M14 melanoma | SK-MEL-5 melanoma | SF-295 CNS | LXFL 529 NSCLC | DMS 273 small cell lung | HL-60(TB) leukemia | KM20L2 colon | ACHN renal | TK-10 renal | DLD-1 colon | A549 NSCLC | NCI-H226 lung | LOX IMVI melanoma | UO-31 renal | HCC-2998 colon | CAKI-1 renal | M19-MEL melanoma | MALME-3M melanoma | SR leukemia | NCI-H522 lung | RPMI-8226 leukemia | UACC-257 melanoma | U251 CNS | DMS 114 small cell lung | UACC-62 melanoma | OVCAR-4 ovarian | HCT-116 colon | SW-620 colon | OVCAR-8 ovarian | RXF-631 renal | NCI-H23 lung | RXF 393 renal | K-562 leukemia | SNB-75 CNS | SF-539 CNS | MOLT-4 leukemia | KM12 colon | A498 renal | COLO 205 colon | SK-OV-3 ovarian | 786-0 renal | SK-MEL-2 melanoma | CCRF-CEM leukemia | SN12C renal | IGROV1 ovarian

CC1(C)C=N[N+]2(C)C3C=CC(CC3)C12 (stereo unspecified)
> 100 µM: HT29 colon | NCI-H460 lung | SK-MEL-28 melanoma | EKVX NSCLC | HCT-15 colon | HOP-62 NSCLC | M14 melanoma | SK-MEL-5 melanoma | SF-295 CNS | LXFL 529 NSCLC | SNB-19 CNS | HL-60(TB) leukemia | SF-268 CNS | KM20L2 colon | ACHN renal | SNB-78 CNS | TK-10 renal | DLD-1 colon | A549 NSCLC | OVCAR-3 ovarian | NCI-H226 lung | LOX IMVI melanoma | UO-31 renal | HCC-2998 colon | CAKI-1 renal | M19-MEL melanoma | MALME-3M melanoma | SR leukemia | NCI-H522 lung | RPMI-8226 leukemia | UACC-257 melanoma | U251 CNS | DMS 114 small cell lung | UACC-62 melanoma | HCT-116 colon | OVCAR-8 ovarian | RXF-631 renal | NCI-H23 lung | HOP-92 NSCLC | RXF 393 renal | K-562 leukemia | SNB-75 CNS | OVCAR-5 ovarian | SF-539 CNS | MOLT-4 leukemia | KM12 colon | A498 renal | COLO 205 colon | SK-OV-3 ovarian | 786-0 renal | HOP-18 NSCLC | SK-MEL-2 melanoma | CCRF-CEM leukemia | SN12C renal | IGROV1 ovarian

CCC(C)C1NC(=O)C2CCCN2C(=O)CNC(=O)C(C)NC(=O)C(Cc2ccccc2)NC(=O)C(C(C)C)NC1=O (stereo unspecified) (cyclo(GPIVFA); configuration not given here)
> 100 µM: HT29 colon | NCI-H460 lung | SK-MEL-28 melanoma | EKVX NSCLC | HCT-15 colon | HOP-62 NSCLC | M14 melanoma | SK-MEL-5 melanoma | SF-295 CNS | LXFL 529 NSCLC | SNB-19 CNS | SF-268 CNS | KM20L2 colon | ACHN renal | TK-10 renal | DLD-1 colon | A549 NSCLC | OVCAR-3 ovarian | NCI-H226 lung | LOX IMVI melanoma | UO-31 renal | HCC-2998 colon | CAKI-1 renal | M19-MEL melanoma | MALME-3M melanoma | SR leukemia | RPMI-8226 leukemia | UACC-257 melanoma | U251 CNS | DMS 114 small cell lung | UACC-62 melanoma | OVCAR-4 ovarian | HCT-116 colon | SW-620 colon | OVCAR-8 ovarian | RXF-631 renal | NCI-H23 lung | HOP-92 NSCLC | RXF 393 renal | SNB-75 CNS | OVCAR-5 ovarian | SF-539 CNS | MOLT-4 leukemia | KM12 colon | A498 renal | COLO 205 colon | SK-OV-3 ovarian | 786-0 renal | HOP-18 NSCLC | SN12C renal | IGROV1 ovarian
